Assay results from patent US9643967B2, “Pyrrolo[3,2-c]pyridine derivatives as TLR inhibitors” (TAKEDA PHARMACEUTICAL COMPANY LIMITED, priority 2013, dated 2017).
Where two headings read alike, the source gives them in different places.

Target: T1, mTLR7 (Mus musculus, UniProt P58681)
T1 construct: Splenocytes isolated from male C57/BL6 mice; from tissue; host or cells: splenocytes from the spleen of male C57BL/6 mice
T1 sequence (P58681 27-1050): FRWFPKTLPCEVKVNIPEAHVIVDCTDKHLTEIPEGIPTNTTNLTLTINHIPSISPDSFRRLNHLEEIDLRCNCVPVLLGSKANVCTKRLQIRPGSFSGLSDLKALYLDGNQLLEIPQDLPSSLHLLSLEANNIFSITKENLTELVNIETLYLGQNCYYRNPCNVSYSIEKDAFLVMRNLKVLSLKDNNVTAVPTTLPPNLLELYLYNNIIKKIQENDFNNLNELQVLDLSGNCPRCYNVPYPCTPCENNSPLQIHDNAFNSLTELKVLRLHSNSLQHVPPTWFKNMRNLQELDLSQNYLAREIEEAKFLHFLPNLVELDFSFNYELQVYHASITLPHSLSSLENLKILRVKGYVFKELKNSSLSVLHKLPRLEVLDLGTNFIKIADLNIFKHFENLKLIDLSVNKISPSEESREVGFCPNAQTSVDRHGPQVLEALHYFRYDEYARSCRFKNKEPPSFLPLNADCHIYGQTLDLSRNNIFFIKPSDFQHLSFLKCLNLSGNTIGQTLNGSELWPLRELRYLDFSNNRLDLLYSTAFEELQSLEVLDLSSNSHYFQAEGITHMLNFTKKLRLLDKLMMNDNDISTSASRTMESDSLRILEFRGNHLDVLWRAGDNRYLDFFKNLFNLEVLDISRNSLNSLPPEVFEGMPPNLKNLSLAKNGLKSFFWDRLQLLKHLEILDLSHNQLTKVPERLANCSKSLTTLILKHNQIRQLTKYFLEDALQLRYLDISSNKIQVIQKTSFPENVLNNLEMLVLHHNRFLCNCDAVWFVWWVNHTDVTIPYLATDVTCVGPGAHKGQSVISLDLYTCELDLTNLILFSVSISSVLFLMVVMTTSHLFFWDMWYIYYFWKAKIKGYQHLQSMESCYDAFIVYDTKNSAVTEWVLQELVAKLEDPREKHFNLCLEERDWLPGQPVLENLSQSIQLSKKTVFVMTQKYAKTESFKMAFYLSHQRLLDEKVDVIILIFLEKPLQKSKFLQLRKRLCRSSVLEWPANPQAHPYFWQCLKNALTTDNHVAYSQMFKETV
Assay: mTLR7 antagonism (IL-6 and TNF-α release assay) in mouse splenocytes, R0006/DOTAP stimulated
Type: cell-based
Conditions: 1 μM, mouse splenocytes
From the text: mTLR9 and mTLR7 Antagonism (Cytokine Release Assay) in Mouse Splenocytes
TLR7 ligand R0006 (IDT, 5′-rU*rU*rG*rU*rU*rG*rU*rU*rG*rU*rU*rG*rU*rU*rG*rU*rU*rG*rU*rU-3′ (SEQ ID NO:1)), Liposomal transfection reagent—DOTAP (Roche, Cat. No. 11202375001), TLR9 ligand CpG ODN2006 (Sequence: T*C*G*T*C*G*T*T*T*T*G*T*C*G*T*T*T*T*G*T*C*G*T*T; *=phosphorothioate (SEQ ID NO:2)) DMSO (Sigma, D2650), RPMI Powder (Sigma, R6504), Fetal Bovine Serum (Gibco, 10270), Dulbecco's Phosphate Buffered Saline (Sigma, D1408), 96 well plate (Flat bottom, Costar 3599), ELISA kit for IL-6 (EBioscience, 88-7064-77 and TNFa (EBioscience, 88-7346-88), MACS Buffer (AutoMACS Rinsing Solution (Miltenyl Biotec, 130-091-222)+0.05% BSA), RBC lysis buffer (0.85% NH4Cl), 40 μm cell strainer (BD Falcon, 352340) Method: A. Isolation of Mouse Splenocytes
Mouse spleen was isolated from C57BL6 mouse and stored in 1× chilled PBS buffer until further processed. Spleen was transferred to a sterile petriplate and chopped in to 5-6 pieces in presence of MACS buffer (100 μl) with the help of fresh surgical blade and crushed with flat plunger of a sterile syringe. A uniform suspension was prepared by passing cells through a 40 μm cell strainer. Cells were centrifuged at 450×g for 5 minutes at 4° C., supernatant was discarded and pellet dislodged gently, resuspended in 2 ml of pre-warmed (37° C.) RBC lysis buffer at room temperature with continuous gentle mixing with 1 ml pipette. Lysis buffer was neutralized with 12 ml of chilled MACS buffer and cells were passed through 40 μm cell strainer. Cell suspension was collected in 15 ml MACS buffer and centrifuged at 450×g for 5 minutes at 4° C. Pellet was resuspended in 15 ml MACS buffer and centrifuged at 400×g for 5 minutes. Cells were resuspended in 10 ml of RPMI complete medium and viability was estimated by Trypan blue method.
mTLR7 Antagonism (IL-6 and TNF-α Release Assay):
1 mg/ml stock of R0006 was prepared in sterile, endotoxin-free water. R0006 stock was diluted 10 fold with DOTAP and incubated for 30 minutes to form liposome complex (100 μg/ml of R0006). This complex was further diluted 10 fold with incomplete RPMI media (10 μg/ml of R0006) to achieve the final agonist concentration of 1 μg/ml. DOTAP alone was diluted 10 fold in incomplete RPMI media. NCEs were added in a concentration range of 30 μM to 1 nM in respective wells of assay plate, assay medium containing 0.3% DMSO were added to control wells. 0.2 million splenocytes were added to all the wells and incubated at 37° C. in 5% CO2 incubator for 30 minutes. 1 μg/ml of respective agonist was added to all the wells except those were assigned as negative controls and mixed thoroughly. DOTAP was added to negative control wells and incubated overnight at 37° C./5% CO2. The plate was centrifuged at 450×g for 5 minutes at room temperature and the supernatant was collected. ELISA was performed as per manufacturer's protocol. S/B Ratio, % Activity and % Inhibition was calculated using MS Excel. IC50 and inhibition curve was generated using Graph Pad Prism.

[1] = IL-6 release, read-out: mTLR7 inhibitory activity (% at 1 μM), IL-6
[2] = TNF-α release, read-out: mTLR7 inhibitory activity (% at 1 μM), TNF-α

Row | inhibition at 1 µM [1] [%] | inhibition at 1 µM [2] [%] | mTLR7 inhibitory activity (% at 1 μM), IL-6 (IL-6 release) [%] | mTLR7 inhibitory activity (% at 1 μM), TNF-α (TNF-α release) [%] | SMILES
1 | 100 | 36 |  |  | CC(C)N1CCC(c2ccc(-c3nccc4[nH]c(CN5CCOCC5)cc34)cc2)CC1 [Example A70, 4-[[4-[4-(1-isopropyl-4-piperidyl)phenyl]-1H-pyrrolo[3,2-c]pyridin-2-yl]methyl]morpholine]
2 |  |  | 62 | 47 | Cc1cc2c(cc(CCN3CCOCC3)n2C)c(C2CCC(N3CCN(C(C)C)CC3)CC2)n1 (stereo not drawn) [Example B26, 4-[2-[4-[4-(4-isopropylpiperazin-1-yl)cyclohexyl]-1,6-dimethyl-pyrrolo[3,2-c]pyridin-2-yl]ethyl]morpholine]
3 | 97 | 82 |  |  | Cc1cc2[nH]c(CN3CCC4(CC3)CC(O)C4)cc2c(-c2ccc(N3CCN(C(C)C)CC3)cc2)n1 [Example A29, 7-[[4-[4-(4-isopropylpiperazin-1-yl)phenyl]-6-methyl-1H-pyrrolo[3,2-c]pyridin-2-yl]methyl]-7-azaspiro[3.5] nonan-2-ol]
4 |  | 100 |  |  | Cc1cc2[nH]c(CCN3CCOCC3)cc2c(-c2ccc(N3CCN(C)CC3)cc2)n1 [Example B4, 4-[2-[6-methyl-4-[4-(4-methylpiperazin-1-yl)phenyl]-1H-pyrrolo[3,2-c]pyridin-2-yl]ethyl]morpholine]
5 |  | 100 |  |  | Cc1nc(-c2ccc(N3CCN(C(C)C)CC3)cc2)c2cc(CN3CCCCC3)[nH]c2c1C [Example A39, 4-[4-(4-isopropylpiperazin-1-yl)phenyl]-6,7-dimethyl-2-(1-piperidylmethyl)-1H-pyrrolo[3,2-c]pyridine]
6 | 88 | 100 |  |  | Cc1cc2[nH]c(Cn3cccn3)cc2c(-c2ccc(N3CCN(C(C)C)CC3)cc2)n1 [Example A28, 4-[4-(4-isopropylpiperazin-1-yl)phenyl]-6-methyl-2-(pyrazol-1-ylmethyl)-1H-pyrrolo[3,2-c]pyridine]
7 | 100 | 100 |  |  | Cc1cc2c(cc(CN3CCOCC3)n2C)c(-c2ccc(N3CCN(C(C)C)CC3)cc2)n1 [Example A35, 4-[[4-[4-(4-isopropylpiperazin-1-yl]phenyl]-1,6-dimethyl-pyrrolo[3,2-c]pyridin-2-yl]methyl] morpholine]
8 |  | 32 |  |  | CC(C)N1CCN(c2ccc(-c3nccc4[nH]c(CN5CCC[C@@H]5C(=O)O)cc34)cc2)CC1 [Example A74, (2R)-1-[[4-[4-(4-isopropylpiperazin-1-yl)phenyl]-1H-pyrrolo[3,2-c]pyridin-2-yl]methyl]pyrrolidine-2-carboxylic acid]
9 |  | 100 |  |  | Cc1cc2[nH]c(CCN3CCOCC3)cc2c(-c2ccc(N3CCN(C(C)C)CC3)cc2)n1 [Example B3, 4-[2-[4-[4-(4-isopropylpiperazin-1-yl)phenyl]-6-methyl-1H-pyrrolo[3,2-c]pyridin-2-yl]ethyl]morpholine]
10 | 25 | 24 |  |  | c1cc2[nH]c(CN3CCOCC3)cc2c(-c2ccc(N3CCN(C4COC4)CC3)cc2)n1 [Example A81, 4-[[4-[4-[4-(oxetan-3-yl)piperazin-1-yl]phenyl]-1H-pyrrolo[3,2-c]pyridin-2-yl]methyl]morpholine]
11 | 100 | 100 |  |  | CCN1CCN(c2ccc(-c3nccc4[nH]c(CN5CCOCC5)cc34)cc2)CC1 [Example A3, 4-[[4-[4-(4-ethylpiperazin-1-yl)phenyl]-1H-pyrrolo[3,2-c]pyridin-2-yl]methyl] morpholine]
12 | 100 | 100 |  |  | COc1cc(-c2nc(C)cc3c2cc(CCN2CCOCC2)n3C)ccc1N1CCN(C(C)C)CC1 [Example B22, 4-[2-[4-[4-(4-isopropylpiperazin-1-yl)-3-methoxy-phenyl]-1,6-dimethyl-pyrrolo[3,2-c]pyridin-2-yl]ethyl]morpholine]
13 | 100 | 100 |  |  | Cc1nc(-c2ccc(N3CCN(C(C)C)CC3)cc2)c2cc(CCN3CCOCC3)[nH]c2c1C [Example B6, 4-[2-[4-[4-(4-isopropylpiperazin-1-yl)phenyl]-6,7-dimethyl-1H-pyrrolo[3,2-c]pyridin-2-yl]ethyl]morpholine]
14 | 100 | 97 |  |  | Cc1cc2[nH]c(CCCN3CCCCC3)cc2c(-c2ccc(N3CCN(C(C)C)CC3)cc2)n1 [Example C5, 4-[4-(4-isopropylpiperazin-1-yl)phenyl]-6-methyl-2-[3-(1-piperidyl)propyl]-1H-pyrrolo[3,2-c]pyridine]
15 |  | 0 |  |  | CN1CCC(n2cc(-c3nccc4[nH]c(CN5CCOCC5)cc34)cn2)CC1 [Example A63, 4-[[4-[1-(1-methyl-4-piperidyl)pyrazol-4-yl]-1H-pyrrolo[3,2-c]pyridin-2-yl]methyl]morpholine]
16 | 100 | 100 |  |  | CN1CCN(c2ccc(-c3nccc4[nH]c(CCN5CCOCC5)cc34)cc2)CC1 [Example B2, 4-[2-[4-[4-(4-methylpiperazin-1-yl)phenyl]-1H-pyrrolo[3,2-c]pyridin-2-yl]ethyl]morpholine]
17 | 100 | 96 |  |  | Cc1cc2[nH]c(CN3CCOCC3)cc2c(-c2ccc(C3CCN(C(C)C)CC3)cc2)n1 [Example A51, 4-[[4-[4-(1-isopropyl-4-piperidyl)phenyl]-6-methyl-1H-pyrrolo[3,2-c]pyridin-2-yl]methyl]morpholine]
18 | 90 | 100 |  |  | CN1CCN(c2ccc(-c3nccc4[nH]c(CN5CCOCC5)cc34)cc2)CC1 [Example A2, 4-[[4-[4-(4-methylpiperazin-1-yl)phenyl]-1H-pyrrolo[3,2-c]pyridin-2-yl]methyl] morpholine]
19 | 100 | 33 |  |  | CC(C)N1CCN(Cc2ccc(-c3nccc4[nH]c(CN5CCOCC5)cc34)cc2)CC1 [Example A55, 4-[[4-[4-[(4-isopropylpiperazin-1-yl)methyl]phenyl]-1H-pyrrolo[3,2-c]pyridin-2-yl]methyl]morpholine]
